Measured values taken from ChEMBL document CHEMBL1201862, “PubChem BioAssay data set” (2004).
Active and inactive are the calls of the source.

Legend:
Cytochrome P450 3A4 = Cytochrome P450 3A4 (Homo sapiens, UniProt P08684);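 also: CYP3A4 tested as one member of a cytochrome P450 panel screen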
[1] = biological target: Glucose-6-phosphate 1-dehydrogenase (Homo sapiens, UniProt P11413); test: human G6PD enzyme inhibitors, dose response, selectivity assay for P. falciparum G6PD inhibitor project, biochemical, fluorescence (AID 504792); format: functional
Sequence of Glucose-6-phosphate 1-dehydrogenase (P11413 whole entry): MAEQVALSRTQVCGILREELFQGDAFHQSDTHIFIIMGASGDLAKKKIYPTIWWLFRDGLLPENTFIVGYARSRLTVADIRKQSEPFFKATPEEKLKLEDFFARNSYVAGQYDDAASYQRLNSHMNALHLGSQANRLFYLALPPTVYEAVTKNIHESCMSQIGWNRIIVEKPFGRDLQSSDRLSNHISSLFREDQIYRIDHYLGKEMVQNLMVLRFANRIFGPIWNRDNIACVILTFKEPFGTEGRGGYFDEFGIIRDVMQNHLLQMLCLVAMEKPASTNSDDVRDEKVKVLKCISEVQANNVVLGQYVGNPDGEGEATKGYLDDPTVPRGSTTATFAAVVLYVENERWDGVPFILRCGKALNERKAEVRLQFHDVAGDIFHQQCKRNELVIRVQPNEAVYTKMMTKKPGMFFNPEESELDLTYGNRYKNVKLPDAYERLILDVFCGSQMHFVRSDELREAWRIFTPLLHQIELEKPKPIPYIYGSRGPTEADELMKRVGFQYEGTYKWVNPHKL

Bcl-2-related protein A1 = biological target: T1, Bcl-2-related protein A1 (Mus musculus, UniProt Q07440); format: functional;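 also: confirmatory dose–response counterscreen on Bfl-1, used to check hits from a UBC13 polyubiquitin inhibitor campaign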
T1 sequence (Q07440 whole entry): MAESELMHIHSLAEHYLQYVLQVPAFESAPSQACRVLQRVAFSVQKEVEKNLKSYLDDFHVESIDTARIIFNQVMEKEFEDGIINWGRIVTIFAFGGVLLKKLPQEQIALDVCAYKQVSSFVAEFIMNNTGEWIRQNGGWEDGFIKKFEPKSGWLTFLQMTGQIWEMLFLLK

[2] = biological target: T2, Ubiquitin-conjugating enzyme E2 N (Homo sapiens, UniProt P61088); format: functional
T2 sequence (P61088 whole entry): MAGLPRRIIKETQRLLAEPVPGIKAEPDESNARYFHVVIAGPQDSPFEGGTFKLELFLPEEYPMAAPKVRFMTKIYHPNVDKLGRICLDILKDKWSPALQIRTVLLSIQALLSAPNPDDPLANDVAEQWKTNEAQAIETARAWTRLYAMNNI

[3] = biological target: T2, Ubiquitin-conjugating enzyme E2 N; format: functional; remark: listed apart in the source
[4] = biological target: DNA dC->dU-editing enzyme APOBEC-3A (Homo sapiens, UniProt P31941); test: Dose Response confirmation of small molecule APOBEC3A DNA Deaminase Inhibitors via a fluorescence-based single-stranded DNA deaminase assay. [Related pubchem assays (depositor defined):AID493011, AID493024]; format: functional
Sequence of DNA dC->dU-editing enzyme APOBEC-3A (P31941 whole entry): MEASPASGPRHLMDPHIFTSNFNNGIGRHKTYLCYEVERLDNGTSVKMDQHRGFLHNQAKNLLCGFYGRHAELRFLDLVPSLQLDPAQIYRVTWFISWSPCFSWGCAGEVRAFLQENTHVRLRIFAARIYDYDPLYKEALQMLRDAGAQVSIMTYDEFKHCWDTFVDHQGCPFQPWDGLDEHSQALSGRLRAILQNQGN

[5] = biological target: DNA dC->dU-editing enzyme APOBEC-3G (Homo sapiens, UniProt Q9HC16); format: functional;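 also: Dose-response counterscreen measuring inhibition of APOBEC3G DNA deaminase activity, run while confirming APOBEC3A inhibitors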
Sequence of DNA dC->dU-editing enzyme APOBEC-3G (Q9HC16 whole entry): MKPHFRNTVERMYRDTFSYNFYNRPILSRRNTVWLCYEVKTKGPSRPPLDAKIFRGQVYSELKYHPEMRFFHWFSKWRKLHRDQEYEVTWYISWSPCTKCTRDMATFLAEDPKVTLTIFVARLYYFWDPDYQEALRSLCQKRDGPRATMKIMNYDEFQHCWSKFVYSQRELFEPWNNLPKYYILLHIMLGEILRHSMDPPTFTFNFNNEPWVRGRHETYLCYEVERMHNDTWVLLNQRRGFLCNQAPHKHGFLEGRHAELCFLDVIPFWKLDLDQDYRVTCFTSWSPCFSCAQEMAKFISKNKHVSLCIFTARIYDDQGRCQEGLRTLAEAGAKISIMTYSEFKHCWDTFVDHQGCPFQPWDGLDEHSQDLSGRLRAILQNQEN

HEK293 [6] = test: NOD1 signaling inhibitors, primary screen, cell-based, luminescence, uHTS (AID 1578); format: functional; settings: Homo sapiens
HEK293 [7] = test: cells; format: functional, cell-based; settings: Homo sapiens
HEK293 [8] = test: cells; format: functional, cell-based; settings: Homo sapiens; remark: listed apart in the source
HEK293 [9] = test: NOD2 signaling inhibitors in MDP-stimulated cells, cell-based, uHTS, luminescence (AID 2001); format: functional; settings: Homo sapiens
[10] = cytotoxicity in HEK-293T cells, dose response, cytotoxicity control for BCR NF-kB inhibitor project, luminescence, B-cell screen hits (AID 489021); format: functional, cell-based;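 also: HEK-293T cells carrying an NF-kB luciferase reporter; cells exposed to compound for about 14 hours before viability readout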
Cytochrome P450 2C9 = Cytochrome P450 2C9 (Homo sapiens, UniProt P11712)
Sequence of Cytochrome P450 2C9 (P11712 whole entry): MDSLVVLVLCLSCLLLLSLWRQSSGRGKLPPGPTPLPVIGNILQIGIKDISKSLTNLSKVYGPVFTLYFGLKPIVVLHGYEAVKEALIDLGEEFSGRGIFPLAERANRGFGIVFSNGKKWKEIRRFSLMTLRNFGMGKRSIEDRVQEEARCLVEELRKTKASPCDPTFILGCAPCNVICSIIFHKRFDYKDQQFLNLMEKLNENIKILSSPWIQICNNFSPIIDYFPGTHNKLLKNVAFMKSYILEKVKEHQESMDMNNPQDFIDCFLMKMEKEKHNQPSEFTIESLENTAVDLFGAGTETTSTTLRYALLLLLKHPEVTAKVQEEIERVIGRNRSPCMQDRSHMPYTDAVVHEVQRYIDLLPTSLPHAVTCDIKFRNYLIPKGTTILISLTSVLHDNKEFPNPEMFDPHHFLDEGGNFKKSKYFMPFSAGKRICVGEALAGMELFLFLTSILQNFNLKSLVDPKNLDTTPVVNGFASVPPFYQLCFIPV

Cytochrome P450 2D6 [11] = biological target: T3, Cytochrome P450 2D6 (Homo sapiens, UniProt P10635);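 also: CYP2D6 member of a cytochrome P450 panel assay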
T3 sequence (P10635 whole entry): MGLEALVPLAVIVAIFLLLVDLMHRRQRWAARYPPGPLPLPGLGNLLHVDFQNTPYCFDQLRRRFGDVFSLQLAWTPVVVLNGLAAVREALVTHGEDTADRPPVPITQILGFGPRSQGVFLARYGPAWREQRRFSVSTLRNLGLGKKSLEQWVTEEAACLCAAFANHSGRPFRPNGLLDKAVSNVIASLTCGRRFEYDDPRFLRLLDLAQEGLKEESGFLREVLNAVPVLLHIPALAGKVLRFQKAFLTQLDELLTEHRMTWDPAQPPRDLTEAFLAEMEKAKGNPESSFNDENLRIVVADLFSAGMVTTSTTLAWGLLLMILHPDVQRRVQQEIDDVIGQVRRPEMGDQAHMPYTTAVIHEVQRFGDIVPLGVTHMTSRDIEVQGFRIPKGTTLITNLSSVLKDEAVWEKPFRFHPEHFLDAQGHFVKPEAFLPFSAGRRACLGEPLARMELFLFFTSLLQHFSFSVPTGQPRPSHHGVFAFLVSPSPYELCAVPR

[12] = HEp-2 cell cytotoxicity, dose response, cytotoxicity control for RSV inhibitor project, HTS (AID 2410); format: functional; settings: human respiratory syncytial virus
[13] = biological target: T4, Carboxy-terminal domain RNA polymerase II polypeptide A small phosphatase 1 (Homo sapiens, UniProt Q9GZU7); test: inhibitors of CTDSP1, concentration-response testing, biochemical assay, absorbance-based, actives from ultra-high-throughput screening (AID 540297); format: functional
T4 sequence (Q9GZU7 whole entry): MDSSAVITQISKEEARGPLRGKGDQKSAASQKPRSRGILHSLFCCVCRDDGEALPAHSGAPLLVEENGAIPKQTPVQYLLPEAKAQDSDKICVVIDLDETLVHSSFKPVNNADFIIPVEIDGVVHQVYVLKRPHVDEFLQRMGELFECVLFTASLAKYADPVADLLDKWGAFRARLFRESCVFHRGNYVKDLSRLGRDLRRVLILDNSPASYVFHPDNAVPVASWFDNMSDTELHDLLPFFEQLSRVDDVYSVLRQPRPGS

Cytochrome P450 2C19 = Cytochrome P450 2C19 (Homo sapiens, UniProt P33261); test: Cytochrome panel assay with activity outcomes. Panel member name: p450-cyp2c19 Compounds with AC50 equal or less than 10 uM are considered active; format: functional
Sequence of Cytochrome P450 2C19 (P33261 whole entry): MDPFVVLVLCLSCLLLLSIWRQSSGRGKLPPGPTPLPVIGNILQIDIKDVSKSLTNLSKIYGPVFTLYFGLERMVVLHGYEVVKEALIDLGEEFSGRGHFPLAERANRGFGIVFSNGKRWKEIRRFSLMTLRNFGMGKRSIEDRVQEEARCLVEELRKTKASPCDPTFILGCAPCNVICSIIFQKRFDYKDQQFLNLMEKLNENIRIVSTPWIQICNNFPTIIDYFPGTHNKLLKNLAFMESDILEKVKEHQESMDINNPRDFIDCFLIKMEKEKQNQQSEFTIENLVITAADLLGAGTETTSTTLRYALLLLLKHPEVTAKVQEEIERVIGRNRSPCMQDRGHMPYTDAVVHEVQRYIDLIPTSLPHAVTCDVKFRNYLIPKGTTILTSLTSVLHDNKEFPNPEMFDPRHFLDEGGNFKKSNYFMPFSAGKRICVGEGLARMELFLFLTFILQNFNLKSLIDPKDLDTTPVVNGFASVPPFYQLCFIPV

Cytochrome P450 2D6 [14] = biological target: T3, Cytochrome P450 2D6; remark: listed apart in the source

Sequence of Cytochrome P450 3A4 (P08684 whole entry): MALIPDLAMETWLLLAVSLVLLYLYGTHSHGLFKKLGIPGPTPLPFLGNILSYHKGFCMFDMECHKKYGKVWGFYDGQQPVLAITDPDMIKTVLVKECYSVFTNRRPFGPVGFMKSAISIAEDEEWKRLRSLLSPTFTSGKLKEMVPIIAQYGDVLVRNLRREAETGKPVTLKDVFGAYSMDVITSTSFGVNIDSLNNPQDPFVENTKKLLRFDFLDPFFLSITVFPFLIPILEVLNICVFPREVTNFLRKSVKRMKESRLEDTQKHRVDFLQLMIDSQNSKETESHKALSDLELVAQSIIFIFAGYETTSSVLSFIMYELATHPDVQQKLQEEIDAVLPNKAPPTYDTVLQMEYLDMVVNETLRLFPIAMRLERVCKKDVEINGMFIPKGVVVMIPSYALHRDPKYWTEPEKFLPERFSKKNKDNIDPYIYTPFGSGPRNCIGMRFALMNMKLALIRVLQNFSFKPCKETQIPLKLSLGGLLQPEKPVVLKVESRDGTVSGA

Structure (SMILES): COC(=O)[C@](C)(N)Cc1ccc(O)cc1
- AC50 (Cytochrome P450 3A4): inconclusive

Structure (SMILES): Cc1ccc(-c2csc(NC(=O)c3ccc(Br)cc3)c2C(=O)O)cc1
- IC50 [1]: > 80 µM (inactive)

Structure (SMILES): O=C(Nc1ccc(F)c(Cl)c1)C1CCN(c2ncnc3c2nc2n3CCCCC2)CC1
- IC50 (Bcl-2-related protein A1): > 20 µM (inactive)
- IC50 [2]: 9.53 µM (active)
- IC50 [3]: 8.53 µM (active)

Structure (SMILES): CC(=O)Nc1nnc(SCC(=O)NCCOc2ccccc2)s1
- IC50 [4]: 4.13 µM (active)
- IC50 [5]: 5.12 µM (active)

Structure (SMILES): Cc1cc(C)nc(Sc2ccc([N+](=O)[O-])cc2[N+](=O)[O-])n1
- EC50 (HEK293 [6]): > 20 µM (inactive)
- IC50 (HEK293 [7]): 6.2 µM (active)
- IC50 (HEK293 [8]): > 20 µM (inactive)
- IC50 (HEK293 [9]): 14.3 µM (inactive)
- IC50 [10]: > 80 µM (inactive)

Structure (SMILES): O=C(CNC(=O)c1ccco1)OCC(=O)c1ccc([N+](=O)[O-])cc1
- IC50 [1]: > 80 µM (inactive)

Structure (SMILES): COCCNC(=O)COC(=O)/C=C/c1cnc2ccccc2n1
- AC50 (Cytochrome P450 2C9): 1.12 µM (inconclusive)
- AC50 (Cytochrome P450 2D6 [11]): inconclusive

Structure (SMILES): CCN1C(NCCCCO)=N[C@@H](c2cccc(F)c2)C(C(=O)OC)=C1C
- IC50 [4]: 3.06 µM (active)
- IC50 [5]: 5.05 µM (active)

Structure (SMILES): CC(C)c1ccc(/C=C2\SC(=O)N(CC(=O)NC3C=CS(=O)(=O)C3)C2=O)cc1 (configuration not stated)
- CC50 [12]: 18.8 µM (active)
- IC50 [13]: 11.8 µM (active)

Structure (SMILES): CN(C)S(=O)(=O)c1ccc(NC(=O)Cc2ccc(S(=O)(=O)N3CCOCC3)s2)cc1
- IC50 [13]: 9.34 µM (active)

Structure (SMILES): COC(=O)c1ccc(NC(=O)N2CCC(O)(c3cccnc3)CC2)cc1
- AC50 (Cytochrome P450 2C19): inconclusive
- AC50 (Cytochrome P450 2D6 [14]): 15.8 µM (inconclusive)
- AC50 (Cytochrome P450 3A4): inconclusive

Structure (SMILES): c1ccc2c(c1)nnn2CN1CCOCC1
- AC50 (Cytochrome P450 2D6 [11]): inconclusive

Structure (SMILES): O=C1c2cccc3cccc(c23)C(=O)N1CC1CCN(CC(O)COCc2ccc3c(c2)OCO3)CC1 (configuration not stated)
- IC50 (Bcl-2-related protein A1): > 20 µM (inactive)
- IC50 [2]: 4.33 µM (active)
- IC50 [3]: 3.25 µM (active)
